Measurements: PMC6150173, “Tryptophan-Containing Cyclic Decapeptides with Activity against Plant Pathogenic Bacteria” (Molecules : A Journal of Synthetic Chemistry and Natural …, 2017)
Peptide text beside a SMILES is read from it.

Experiments:
Assay type in all cases: cell-based
[1] = tested on: Pseudomonas syringae pv. syringae EPS94; experiment: Antibacterial activity (MIC), in vitro growth inhibition; conditions: Table S1, MIC range
Procedure: (§1) Erwinia amylovora PMV6076 (Institut National de la Recherche Agronomique, Angers, France), Pseudomonas syringae pv. syringae EPS94 (Institut de Tecnologia Agroalimentària, Universitat de Girona, Spain), and Xanthomonas axonopodis pv. vesicatoria 2133-2 (Instituto Valenciano de Investigaciones Agrarias, Valencia, Spain) were used as bacterial strains. They were stored and cultivated as previously described.
(§2) The minimum inhibitory concentration (MIC) was analyzed as previously described at 0.8, 1.6, 3.1, 6.2, 12.5, 25 and 50 μM [20].

[2] = tested on: Erwinia amylovora PMV6076; experiment: as above; conditions: Table S1, MIC range
Procedure: as §1, §2

[3] = tested on: erythrocyte suspensions of human blood; experiment: Hemolytic activity, hemoglobin release; conditions: human blood erythrocytes 5% v/v, absorbance 540 nm, percentage compared to melittin, three replicates; for Hemolysis (%) at 50 µM: peptide 50 μM (table prints 50 µM); for Hemolysis (%) at 125 µM: peptide 125 μM (table prints 125 µM)
Procedure: The hemolytic activity of the compounds was evaluated at 50 and 125 μM by determining hemoglobin release from erythrocyte suspensions of human blood (5% v/v) (Oxoid) using absorbance at 540 nm, as previously described. Three replicates for each peptide concentration were used.

[4] = tested on: Xanthomonas axonopodis pv. vesicatoria 2133-2; conditions: Table S1, MIC range
Procedure: as §1, §2

| Structure (SMILES) | MIC Pss [1] | MIC Ea [2] | Hemolysis (%) at 50 µM [3] | Hemolysis (%) at 125 µM [3] | MIC Xav [4] |
| --- | --- | --- | --- | --- | --- |
| CC(C)C[C@@H]1NC(=O)[C@H](CCCCN)NC(=O)[C@H](CCCCN)NC(=O)[C@H](Cc2c[nH]c3ccccc23)NC(=O)[C@H](CC(C)C)NC(=O)[C@H](CCCCN)NC(=O)[C@H](CCCCN)NC(=O)[C@H](CC(C)C)NC(=O)[C@H](CCCCN)NC(=O)[C@H](CCC(N)=O)NC1=O [BPC084W, c(KLKKLWKKLQ)] (cyclo(KKLQKLKKLW)) | 12.5 to 25 µM | 12.5 to 25 µM | 54% | 60% | 1.6 to 3.1 µM |
| CC(C)C[C@@H]1NC(=O)[C@H](CCCCN)NC(=O)[C@H](CCC(N)=O)NC(=O)[C@H](CC(C)C)NC(=O)[C@H](CCCCN)NC(=O)[C@H](CC(C)C)NC(=O)[C@H](Cc2c[nH]c3ccccc23)NC(=O)[C@H](CCCCN)NC(=O)[C@H](CCCCN)NC(=O)[C@H](CCCCN)NC1=O [BPC076W, c(KLKKKWLKLQ)] (cyclo(KKKWLKLQKL)) | 6.2 to 12.5 µM | 6.2 to 12.5 µM | 15% | 21% | 1.6 to 3.1 µM |
| CC(C)C[C@@H]1NC(=O)[C@H](CCC(N)=O)NC(=O)[C@H](CC(C)C)NC(=O)[C@H](CCCCN)NC(=O)[C@H](CC(C)C)NC(=O)[C@H](Cc2c[nH]c3ccccc23)NC(=O)[C@H](CCCCN)NC(=O)[C@H](CCCCN)NC(=O)[C@H](CCCCN)NC(=O)[C@H](CCCCN)NC1=O [BPC078W, c(LKKKKWLKLQ)] (cyclo(KKKKWLKLQL)) | 6.2 to 12.5 µM | 25 to 50 µM | 3% | 6% | 0.8 to 1.6 µM |
| CC(C)C[C@@H]1NC(=O)[C@H](CCCCN)NC(=O)[C@H](CCCCN)NC(=O)[C@H](Cc2c[nH]c3ccccc23)NC(=O)[C@H](CCCCN)NC(=O)[C@H](CC(C)C)NC(=O)[C@H](CC(C)C)NC(=O)[C@H](CCCCN)NC(=O)[C@H](CCCCN)NC(=O)[C@H](CCC(N)=O)NC1=O [BPC088W, c(KKLLKWKKLQ)] (cyclo(KKLLKWKKLQ)) | 6.2 to 12.5 µM | 12.5 to 25 µM | 14% | 19% | 1.6 to 3.1 µM |
| CC(C)C[C@@H]1NC(=O)[C@H](CCCCN)NC(=O)[C@H](CC(C)C)NC(=O)[C@H](CC(C)C)NC(=O)[C@H](CCCCN)NC(=O)[C@H](CCC(N)=O)NC(=O)[C@H](CCCCN)NC(=O)[C@H](CCCCN)NC(=O)[C@H](CCCCN)NC(=O)[C@H](Cc2c[nH]c3ccccc23)NC1=O [BPC154W, c(KLLKLWKKKQ)] (cyclo(KKKQKLLKLW)) | 3.1 to 6.2 µM | 25 to 50 µM | 4% | 7% | 1.6 to 3.1 µM |
| CC(C)C[C@@H]1NC(=O)[C@H](CCCCN)NC(=O)[C@H](CCCCN)NC(=O)[C@H](CCCCN)NC(=O)[C@H](CCC(N)=O)NC(=O)[C@H](CCCCN)NC(=O)[C@H](CCCCN)NC(=O)[C@H](CC(C)C)NC(=O)[C@H](Cc2c[nH]c3ccccc23)NC(=O)[C@H](CC(C)C)NC1=O [BPC128W, c(KKKLLWLKKQ)] (cyclo(KKKLLWLKKQ)) | 6.2 to 12.5 µM | 12.5 to 25 µM | 2% | 2% | 1.6 to 3.1 µM |
| CC(C)C[C@@H]1NC(=O)[C@H](CCCCN)NC(=O)[C@H](CC(C)C)NC(=O)[C@H](CCCCN)NC(=O)[C@H](CCC(N)=O)NC(=O)[C@H](CCCCN)NC(=O)[C@H](CCCCN)NC(=O)[C@H](CC(C)C)NC(=O)[C@H](Cc2c[nH]c3ccccc23)NC(=O)[C@H](CCCCN)NC1=O [BPC138W, c(KLKLKWLKKQ)] (cyclo(KKQKLKLKWL)) | 6.2 to 12.5 µM | 25 to 50 µM | 7% | 14% | 3.1 to 6.2 µM |
| CC(C)C[C@@H]1NC(=O)[C@H](CCCCN)NC(=O)[C@H](CCCCN)NC(=O)[C@H](Cc2c[nH]c3ccccc23)NC(=O)[C@H](CCCCN)NC(=O)[C@H](CC(C)C)NC(=O)[C@H](CC(C)C)NC(=O)[C@H](CC(C)C)NC(=O)[C@H](CCCCN)NC(=O)[C@H](CCC(N)=O)NC1=O [BPC184W, c(KLLLKWKKLQ)] (cyclo(KKLQKLLLKW)) | 3.1 to 6.2 µM | 25 to 50 µM | 22% | 32% | 1.6 to 3.1 µM |
| CC(C)C[C@@H]1NC(=O)[C@H](CCCCN)NC(=O)[C@H](CCCCN)NC(=O)[C@H](CC(C)C)NC(=O)[C@H](CC(C)C)NC(=O)[C@H](CCC(N)=O)NC(=O)[C@H](CCCCN)NC(=O)[C@H](CCCCN)NC(=O)[C@H](CCCCN)NC(=O)[C@H](Cc2c[nH]c3ccccc23)NC1=O [BPC158W, c(LLKKLWKKKQ)] (cyclo(KKKQLLKKLW)) | 12.5 to 25 µM | 12.5 to 25 µM | 10% | 14% | 1.6 to 3.1 µM |
| CC(C)C[C@@H]1NC(=O)[C@H](CCC(N)=O)NC(=O)[C@H](CCCCN)NC(=O)[C@H](CCCCN)NC(=O)[C@H](CCCCN)NC(=O)[C@H](Cc2c[nH]c3ccccc23)NC(=O)[C@H](CCCCN)NC(=O)[C@H](CC(C)C)NC(=O)[C@H](CC(C)C)NC(=O)[C@H](CCCCN)NC1=O [BPC162W, c(LKLLKWKKKQ)] (cyclo(KKKQLKLLKW)) | 6.2 to 12.5 µM |  | 57% | 56% | 3.1 to 6.2 µM |
| CC(C)C[C@@H]1NC(=O)[C@H](CCCCN)NC(=O)[C@H](CC(C)C)NC(=O)[C@H](CC(C)C)NC(=O)[C@H](CCC(N)=O)NC(=O)[C@H](CC(C)C)NC(=O)[C@H](CCCCN)NC(=O)[C@H](CCCCN)NC(=O)[C@H](Cc2c[nH]c3ccccc23)NC(=O)[C@H](CCCCN)NC1=O [BPC196W, c(LLKLKWKKLQ)] (cyclo(KKLQLLKLKW)) | 3.1 to 6.2 µM |  | 2% | 3% | 1.6 to 3.1 µM |
| CC(C)C[C@@H]1NC(=O)[C@H](CCCCN)NC(=O)[C@H](CCCCN)NC(=O)[C@H](CCC(N)=O)NC(=O)[C@H](CCCCN)NC(=O)[C@H](CCCCN)NC(=O)[C@H](CCCCN)NC(=O)[C@H](Cc2c[nH]c3ccccc23)NC(=O)[C@H](CC(C)C)NC(=O)[C@H](CC(C)C)NC1=O [BPC148W, c(KKLLLWKKKQ)] (cyclo(KKKQKKLLLW)) | 12.5 to 25 µM |  | 1% | 2% | 12.5 to 25 µM |
